Measured values: ChEMBL document CHEMBL1125841, “Nucleosides and nucleotides. 96. Synthesis and antitumor activity of 5-ethynyl-1-beta-D-ribofuranosylimidazole-4-carboxamide (EICAR) and its derivatives” (J Med Chem, 1991)
Values after ≈ are worked out from the molar mass of the structure shown.

Experiments:
[1] = tested on: SW480; experiment: In vitro inhibitory activity against growth of Human colon adenocarcinoma (SW-480) cells; assay type: functional, cell-based
[2] = tested on: HT-1376; experiment: In vitro inhibitory activity against growth of Human bladder carcinoma (HT1376) cells; assay type: functional, cell-based
[3] = tested on: L1210; experiment: (§1) In vitro inhibitory activity against growth of murine L1210 cells.; assay type: functional, cell-based; conditions: Mus musculus
[4] = tested on: G-292; experiment: In vitro inhibitory activity against growth of Human osteogenic sarcoma (G-292) cells; assay type: functional, cell-based; conditions: G292
[5] = tested on: HL-60; experiment: In vitro inhibitory activity against growth of Human promyelocytic leukemia (HL-60) cells; assay type: functional, cell-based
[6] = tested on: QG-56; experiment: In vitro inhibitory activity against growth of Human lung squamous-cell carcinoma (QG-56) cells; assay type: functional, cell-based
[7] = tested on: KU-2 cell line; experiment: In vitro inhibitory activity against growth of Human renal-cell carcinoma (KU-2) cells; assay type: functional, cell-based
[8] = tested on: OST; experiment: In vitro inhibitory activity against growth of Human osteosarcoma (OST) cells; assay type: functional, cell-based
[9] = tested on: HT-1080; experiment: In vitro inhibitory activity against growth of Human fibrosarcoma (HT1080) cells; assay type: functional, cell-based
[10] = tested on: T-24; experiment: In vitro inhibitory activity against growth of Human bladder transitional-cell carcinoma (T-24) cells; assay type: functional, cell-based
[11] = tested on: HOS; experiment: In vitro inhibitory activity against growth of Human osteogenic sarcoma (HOS) cells; assay type: functional, cell-based
[12] = tested on: KB; experiment: In vitro inhibitory activity against growth of Human oral epidermoid carcinoma (KB) cells; assay type: functional, cell-based
[13] = tested on: PC-13; experiment: In vitro inhibitory activity against growth of Human large-cell carcinoma (PC-13) cells; assay type: functional, cell-based
[14] = tested on: PC-6; experiment: In vitro inhibitory activity against growth of Human lung small-cell carcinoma (PC-6) cells; assay type: functional, cell-based
[15] = tested on: RPMI-8226; experiment: In vitro inhibitory activity against growth of Human myeloma (RPMI 8226) cells; assay type: functional, cell-based
[16] = tested on: CCRF-CEM; experiment: In vitro inhibitory activity against growth of Human acute lymphocytic leukemia (CCRF-CEM) cells; assay type: functional, cell-based
[17] = tested on: K562; experiment: In vitro inhibitory activity against growth of Human chronic myelogenous leukemia (K562 cells; assay type: functional, cell-based
[18] = tested on: COLO 205; experiment: In vitro inhibitory activity against growth of Human colon adenocarcinoma (COLO 205) cells.; assay type: functional, cell-based
[19] = tested on: Lu-65; experiment: In vitro inhibitory activity against growth of Human gaint cell carcinoma (Lu-65) cells; assay type: functional, cell-based
[20] = tested on: U-937; experiment: In vitro inhibitory activity against growth of Human histocytic lymphoma (U937) cells; assay type: functional, cell-based
[21] = tested on: PC-3; experiment: In vitro inhibitory activity against growth of Human lung adenocarcinoma (PC-3) cells.; assay type: functional, cell-based
[22] = tested on: PANC-1; experiment: In vitro inhibitory activity against growth of Human pancreas epitheloid carcinoma (PANC-1) cells; assay type: functional, cell-based
[23] = tested on: QG-90; experiment: In vitro inhibitory activity against growth of Human lung small cell carcinoma (QG-90) cells; assay type: functional, cell-based
[24] = tested on: Calu-1; experiment: In vitro inhibitory activity against growth of Human epidermoid carcinoma (Calu-1) cells; assay type: functional, cell-based
[25] = tested on: PC-8; experiment: In vitro inhibitory activity against growth of Human lung adenocarcinoma (PC-8) cells; assay type: functional, cell-based
[26] = tested on: SAOS-2; experiment: In vitro inhibitory activity against growth of Human osteogenic sarcoma (Saos-2) cells; assay type: functional, cell-based
[27] = tested on: L1210; experiment: In vitro inhibitory activity against growth of murine L1210 cells at 100 ug/mL concentration; assay type: functional; conditions: Mus musculus
[28] = tested on: L1210; experiment: as §1; assay type: functional, Mus musculus

## C#Cc1c(C(N)=O)ncn1[C@@H]1O[C@H](CO)[C@@H](O)[C@H]1O
[1]
  IC50: 3.3 µg/mL (≈ 12.3 µM)
[2]
  IC50: 0.14 µg/mL (≈ 0.524 µM)
[3]
  IC50: 0.18 µg/mL (≈ 0.674 µM)
[4]
  IC50: 2.55 µg/mL (≈ 9.54 µM)
[5]
  IC50: 0.23 µg/mL (≈ 0.861 µM)
[6]
  IC50: 0.18 µg/mL (≈ 0.674 µM)
[7]
  IC50: < 0.1 µg/mL
[8]
  IC50: 28 µg/mL (≈ 105 µM)
[9]
  IC50: 3 µg/mL (≈ 11.2 µM)
[10]
  IC50: 0.88 µg/mL (≈ 3.29 µM)
[11]
  IC50: 0.28 µg/mL (≈ 1.05 µM)
[12]
  IC50: 12 µg/mL (≈ 44.9 µM)
[13]
  IC50: 86 µg/mL (≈ 322 µM)
[14]
  IC50: 0.46 µg/mL (≈ 1.72 µM)
[15]
  IC50: 0.44 µg/mL (≈ 1.65 µM)
[16]
  IC50: 1.03 µg/mL (≈ 3.85 µM)
[17]
  IC50: 0.17 µg/mL (≈ 0.636 µM)
[18]
  IC50: 0.11 µg/mL (≈ 0.412 µM)
[19]
  IC50: 3.8 µg/mL (≈ 14.2 µM)
[20]
  IC50: 0.11 µg/mL (≈ 0.412 µM)
[21]
  IC50: 96 µg/mL (≈ 359 µM)
[22]
  IC50: 0.16 µg/mL (≈ 0.599 µM)
[23]
  IC50: 0.23 µg/mL (≈ 0.861 µM)
[24]
  IC50: 0.21 µg/mL (≈ 0.786 µM)
[25]
  IC50: 0.54 µg/mL (≈ 2.02 µM)
[26]
  IC50: 4.23 µg/mL (≈ 15.8 µM)

## NC(=O)c1ncn(C2O[C@H](CO)[C@@H](O)[C@H]2O)c1C#CC1CCCCC1 (some centres not stated)
[27]
  inhibition at 100 µg/mL: 18.9%

## NC(=O)c1ncn(C2O[C@H](CO)[C@@H](O)[C@H]2O)c1C#CCC1CCCC1 (some centres not stated)
[27]
  inhibition at 100 µg/mL: -10.7%

## C#Cc1c(C#N)ncn1C1O[C@H](CO)[C@@H](O)[C@H]1O (some centres not stated)
[3]
  IC50: 1.9 µg/mL (≈ 7.62 µM)

## CCCCC#Cc1c(C(N)=O)ncn1C1O[C@H](CO)[C@@H](O)[C@H]1O (some centres not stated)
[3]
  IC50: 2.29 µg/mL (≈ 7.08 µM)

## N#Cc1ncn(C2O[C@H](CO)[C@@H](O)[C@H]2O)c1C#CCCO (some centres not stated)
[3]
  IC50: 3.3 µg/mL (≈ 11.3 µM)

## N#CCCCC#Cc1c(C(N)=O)ncn1C1O[C@H](CO)[C@@H](O)[C@H]1O (some centres not stated)
[28]
  Inhibition: 3.6%

## CCCC#Cc1c(C#N)ncn1C1O[C@H](CO)[C@@H](O)[C@H]1O (some centres not stated)
[3]
  IC50: 14.8 µg/mL (≈ 50.8 µM)

## C=Cc1c(C(N)=O)ncn1C1O[C@H](CO)[C@@H](O)[C@H]1O (some centres not stated)
[27]
  inhibition at 100 µg/mL: 0.4%

## N#Cc1ncn(C2O[C@H](CO)[C@@H](O)[C@H]2O)c1C#Cc1ccccc1 (some centres not stated)
[3]
  IC50: 80.3 µg/mL (≈ 247 µM)

## N#Cc1ncn(C2O[C@H](CO)[C@@H](O)[C@H]2O)c1C#CCO (some centres not stated)
[3]
  IC50: 4.1 µg/mL (≈ 14.7 µM)

## NC(=O)c1ncn(C2O[C@H](CO)[C@@H](O)[C@H]2O)c1C#CCCc1ccccc1 (some centres not stated)
[27]
  inhibition at 100 µg/mL: 8.5%

## NC(=O)c1ncn(C2O[C@H](CO)[C@@H](O)[C@H]2O)c1C#CCCO (some centres not stated)
[1]
  IC50: 6.2 µg/mL (≈ 19.9 µM)
[3]
  IC50: 1.28 µg/mL (≈ 4.11 µM)
[8]
  IC50: 51 µg/mL (≈ 164 µM)
[9]
  IC50: > 100 µg/mL
[10]
  IC50: 15 µg/mL (≈ 48.2 µM)
[12]
  IC50: 9.5 µg/mL (≈ 30.5 µM)
[13]
  IC50: 26 µg/mL (≈ 83.5 µM)
[14]
  IC50: 12 µg/mL (≈ 38.5 µM)
[19]
  IC50: 15 µg/mL (≈ 48.2 µM)
[21]
  IC50: > 100 µg/mL

## NC(=O)c1ncn(C2O[C@H](CO)[C@@H](O)[C@H]2O)c1C#Cc1ccccc1 (some centres not stated)
[3]
  IC50: 20.6 µg/mL (≈ 60 µM)

## NC(=O)c1ncn(C2O[C@H](CO)[C@@H](O)[C@H]2O)c1C#CCO (some centres not stated)
[1]
  IC50: 3.8 µg/mL (≈ 12.8 µM)
[3]
  IC50: 0.7 µg/mL (≈ 2.35 µM)
[8]
  IC50: > 100 µg/mL
[10]
  IC50: 8.8 µg/mL (≈ 29.6 µM)
[12]
  IC50: 7.5 µg/mL (≈ 25.2 µM)
[13]
  IC50: 44 µg/mL (≈ 148 µM)
[19]
  IC50: 54 µg/mL (≈ 182 µM)
[21]
  IC50: 54 µg/mL (≈ 182 µM)

## CC(C)(O)C#Cc1c(C(N)=O)ncn1C1O[C@H](CO)[C@@H](O)[C@H]1O (some centres not stated)
[3]
  IC50: 4.8 µg/mL (≈ 14.8 µM)

## O=c1[nH]cc(F)c(=O)[nH]1 [FLUOROURACIL]
[2]
  IC50: 0.58 µg/mL (≈ 4.46 µM)
[4]
  IC50: > 3.3 µg/mL
[5]
  IC50: 1.33 µg/mL (≈ 10.2 µM)
[6]
  IC50: 0.18 µg/mL (≈ 1.38 µM)
[7]
  IC50: 0.28 µg/mL (≈ 2.15 µM)
[11]
  IC50: 0.79 µg/mL (≈ 6.07 µM)
[15]
  IC50: 0.07 µg/mL (≈ 0.538 µM)
[16]
  IC50: 2.1 µg/mL (≈ 16.1 µM)
[17]
  IC50: 2.2 µg/mL (≈ 16.9 µM)
[18]
  IC50: 0.1 µg/mL (≈ 0.769 µM)
[20]
  IC50: 0.11 µg/mL (≈ 0.846 µM)
[22]
  IC50: 0.22 µg/mL (≈ 1.69 µM)
[23]
  IC50: 0.22 µg/mL (≈ 1.69 µM)
[24]
  IC50: > 3.3 µg/mL
[25]
  IC50: 0.42 µg/mL (≈ 3.23 µM)
[26]
  IC50: 0.78 µg/mL (≈ 6 µM)

## NC(=O)c1ncn([C@@H]2O[C@H](CO)[C@@H](O)[C@H]2O)c1O [MIZORIBINE]
[1]
  IC50: 42 µg/mL (≈ 162 µM)
[8]
  IC50: > 100 µg/mL
[9]
  IC50: > 100 µg/mL
[10]
  IC50: > 100 µg/mL
[12]
  IC50: > 100 µg/mL
[13]
  IC50: > 100 µg/mL
[14]
  IC50: 49 µg/mL (≈ 189 µM)
[19]
  IC50: > 100 µg/mL
[21]
  IC50: > 100 µg/mL
